Measurements from ChEMBL document CHEMBL1201862, “PubChem BioAssay data set” (2004).
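Method: 48-hour compound exposure of cells in 96-well plates, five concentrations, linear interpolation of endpoints. GI50 marks 50% less growth.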 Calls of active or inactive are those of the source. Rule as the data show it: active = GI50 up to about 1.1 µM and inactive = higher.

How the values were obtained:
Experiment in all cases: inhibition of tumour cell growth, NCI panel, 48 h
PC-3 = system: PC-3
SNB-75 = system: SNB-75
NCI-H522 = system: NCI-H522
SR = system: SR
786-0 = system: 786-0
SF-268 = system: SF-268
HOP-62 = system: HOP-62
EKVX = system: EKVX
K562 = system: K562
CAKI-1 = system: CAKI-1
TK-10 = system: TK-10
MDA-MB-231 = system: MDA-MB-231
COLO 205 = system: COLO 205
U-251 = system: U-251
SK-OV-3 = system: SK-OV-3
HCT-116 = system: HCT-116
HT-29 = system: HT-29
SN12C = system: SN12C

| SMILES | GI50 (PC-3) | GI50 (SNB-75) | GI50 (NCI-H522) | GI50 (SR) | GI50 (786-0) | GI50 (SF-268) | GI50 (HOP-62) | GI50 (EKVX) | GI50 (K562) | GI50 (CAKI-1) | GI50 (TK-10) | GI50 (MDA-MB-231) | GI50 (COLO 205) | GI50 (U-251) | GI50 (SK-OV-3) | GI50 (HCT-116) | GI50 (HT-29) | GI50 (SN12C) |
| --- | --- | --- | --- | --- | --- | --- | --- | --- | --- | --- | --- | --- | --- | --- | --- | --- | --- | --- |
| O=C(c1ccccc1)c1c(C(F)(F)F)[n+]([O-])c2cc(F)c(F)cc2[n+]1[O-] | 0.716 µM (active) | 1.95 µM (inactive) | 0.746 µM (active) | < 0.01 µM (active) | 0.525 µM (active) | 1.32 µM (inactive) | 1.25 µM (inactive) | 2.45 µM (inactive) | 0.105 µM (active) | 0.807 µM (active) | 0.195 µM (active) | 0.61 µM (active) | 3.86 µM (inactive) | 0.377 µM (active) | 5.97 µM (inactive) | 0.156 µM (active) | 0.586 µM (active) |  |
| O=C1CCC(Cl)=CC2CCCN12 (centres undefined) |  | > 100 µM (inactive) |  |  | > 100 µM (inactive) |  | > 100 µM (inactive) | > 100 µM (inactive) | > 100 µM (inactive) | > 100 µM (inactive) | > 100 µM (inactive) |  | > 100 µM (inactive) | > 100 µM (inactive) | > 100 µM (inactive) | > 100 µM (inactive) | > 100 µM (inactive) | > 100 µM (inactive) |
| COc1ccccc1C#C/C=C\C#Cc1ccccc1C#N | 13.2 µM (inactive) | 28.7 µM (inactive) | 5.14 µM (inactive) | 4.08 µM (inactive) | 18.5 µM (inactive) | 19.4 µM (inactive) | 14.5 µM (inactive) | 5.94 µM (inactive) | 3.68 µM (inactive) | 3.72 µM (inactive) | 20.7 µM (inactive) |  | 13.3 µM (inactive) | 9.18 µM (inactive) | 39.8 µM (inactive) | 7.35 µM (inactive) | 6.28 µM (inactive) | 26 µM (inactive) |
| Nn1c(S)nnc1N/N=C1/C(=O)Nc2c(Cl)cc(Cl)cc21 |  |  | 95.1 µM (inactive) | 38.3 µM (inactive) | 97.3 µM (inactive) | > 100 µM (inactive) | 50.4 µM (inactive) | > 100 µM (inactive) | 31.2 µM (inactive) | 69 µM (inactive) | > 100 µM (inactive) |  | > 100 µM (inactive) | > 100 µM (inactive) | 37.2 µM (inactive) | > 100 µM (inactive) | > 100 µM (inactive) | 94.8 µM (inactive) |
| c1cc2sc1CSCCSCCSC2 | > 100 µM (inactive) | > 100 µM (inactive) | > 100 µM (inactive) | > 100 µM (inactive) | > 100 µM (inactive) | > 100 µM (inactive) | > 100 µM (inactive) | > 100 µM (inactive) | > 100 µM (inactive) |  | > 100 µM (inactive) | > 100 µM (inactive) | > 100 µM (inactive) | > 100 µM (inactive) | > 100 µM (inactive) | > 100 µM (inactive) | > 100 µM (inactive) | > 100 µM (inactive) |
| O=C1OC(C(O)CO)C(C(O)CO)OC1=O (centres undefined) | > 10 µM (inactive) |  |  | > 10 µM (inactive) | > 10 µM (inactive) | > 10 µM (inactive) | > 10 µM (inactive) | > 10 µM (inactive) | > 10 µM (inactive) | > 10 µM (inactive) | > 10 µM (inactive) | > 10 µM (inactive) | > 10 µM (inactive) | > 10 µM (inactive) |  |  | > 10 µM (inactive) | > 10 µM (inactive) |
| CC1(C)C(O)C[C@]23CCC[C@](C)(C[C@@H](O)C12)C3 (some centres undefined) | > 100 µM (inactive) | > 100 µM (inactive) | > 100 µM (inactive) | > 100 µM (inactive) | 32.9 µM (inactive) | > 100 µM (inactive) | > 100 µM (inactive) | > 100 µM (inactive) | > 100 µM (inactive) | > 100 µM (inactive) | > 100 µM (inactive) |  | > 100 µM (inactive) | > 100 µM (inactive) | > 100 µM (inactive) |  | > 100 µM (inactive) | > 100 µM (inactive) |
